Source: PubChem BioAssay AID2060485 (Molecular Pharmacology Branch, DTP, NCI, 2025)
“And” between values parts separate entries of the source, which are not always exact repeats. Identical values can stand only once.

Test system: A375 multi-cell spheroids with HUVEC/MSC, viability
Assay: Anticancer human tumor A375 cell line growth inhibition [GQUAD];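 note: spheroids exposed to compounds for seven days before readout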
Conditions: for viability, T/C: stronger effect = lower value
Text: DNA G-quadruplex Stabilizer Agents in Combinations in Complex Spheroids
A high-throughput screen of multi-cell type tumor spheroids was designed to identify active combinations of DNA G-quadruplex stabilizer agents and targeted small molecules. Complex spheroids include a stromal component modeled by human endothelial cells (HUVEC) and fibroblasts modeled by human mesenchymal stem cells (MSCs). The concentration ranges selected for each drug and investigational agent were based upon clinically achievable concentrations if the clinical Cmax of the agent was known.
Compounds. The drugs and investigational agents: pidnarulex (CX-5461; NSC782164), APTO-253 (NSC789042), BRACO-19 (NSC847499), peposertib (NSC802822), ceralasertib (NSC780249), elimusertib (NSC800525), camonsertib (NSC841442), AZD-1390 (NSC803789), olaparib (NSC753686), talazoparib (NSC767125), ART-558 (NSC835418), sotorasib (NSC818433), MRTX-1133 (NSC836407), SN-38 (NSC673596), topotecan (NSC609699), etoposide (NSC141540), doxorubicin (NSC123127), gemcitabine (NSC613327), 5-fluorouracil (NSC19893), paclitaxel (NSC125973), vemurafenib (NSC761431), panobinostat (NSC761190), R-306465 (JNJ-16241199; NSC773264), adavosertib (NSC754352), TP-3654 (NSC805149), carboplatin (NSC241240), KSQ-4279 (NSC840948), and staurosporine (NSC755774) were obtained from the National Cancer Institute (NCI) Developmental Therapeutics Program Chemical Repository (34). The FDA-approved anticancer drug set is available from the NCI Developmental Therapeutics Program. […] The stock solutions were prepared in dimethyl sulfoxide (DMSO, Sigma-Aldrich, St. Louis, MO, cat. D2650) at 800-fold the tested concentration and stored at -70 degrees C prior to their use. All drugs and investigational agents were tested over a range starting from a high concentration at or near the clinical Cmax and decreasing in half-log increments. If the clinical Cmax for an agent had not been determined, the highest concentration tested was 10 microM.
2.3 Cell Culture. All cells were maintained in an incubator at 37 degrees C and 5% CO2 with 95% humidity. The PDC lines were cultured according to standard operating procedures established by the NCI PDMR. All PDCs were thawed and cultured in Matrigel-coated flasks prepared with a working solution of 1X Ham's F-12 nutrient mix, without supplementation (Invitrogen, cat. 11765054), 100 U/mL penicillin-streptomycin (Invitrogen, cat. 15140122), and 2.5% Matrigel (Corning Inc., cat. 354248) for the first three passages. The 857933-349-R-J2-PDC line was cultured in 6C/Colon 1B media, which includes advanced DMEM/F-12 (Thermo Fisher Scientific, cat. 12634028), 10 mM HEPES (Thermo Fisher Scientific, cat. 15630080), 1X GlutaMAX supplement (Thermo Fisher Scientific, cat. 35050061), 0.1 mg/mL primocin (InvivoGen, cat. ant-pm-2), 10% defined fetal bovine serum, heat inactivated (HyClone Laboratories Inc., cat. SH30070.03HI), 50% L-WRN conditioned media (ATCC, cat. CRL-3276), 1.25 mM N-Acetyl-L-cysteine (Sigma-Aldrich, cat. A9165), 10 mM nicotinamide (Sigma-Aldrich, cat. N0636), 1X B-27 supplement (Thermo Fisher Scientific, cat. 17504044), 1X N-2 supplement (Thermo Fisher Scientific, cat. 17502048), 10 microM Y-27632 dihydrochloride (Tocris Bioscience, cat. 1254), and 50 ng/mL human EGF recombinant protein (Thermo Fisher Scientific, cat. PHG0311). The 485176-168-R4-J1-PDC line was cultured in Panc media, which includes all 6C/Colon 1B media components plus 100 ng/mL human FGF-10 (Thermo Fisher Scientific, cat. 100-26), 500 nM SB-431542 (Selleckchem, cat. S1067), and gastrin (Tocris, cat. 3006).
[…]

[1] = compound alone, run of 03/18/2024

Structure (SMILES) | viability, T/C (compound 0.0316 µM) | viability, T/C (compound 0.1 µM) | viability, T/C (compound 0.316 µM) | viability, T/C (compound 1 µM) | viability, T/C (compound 3.16 µM) | viability, T/C (compound 10 µM) | IC50 (curve of compound) | IC50 [1] | IC50 (compound alone, run of 03/26/2024) [nM] | viability, T/C (compound 0.000999 µM) | viability, T/C (compound 0.00316 µM) | viability, T/C (compound 0.00999 µM) | viability, T/C (compound 0.0999 µM)
COc1cc(C2c3cc4c(cc3C(OC3OC5COC(C)OC5C(O)C3O)C3COC(=O)C23)OCO4)cc(OC)c1O (stereo unspecified) | 93.3% and 94.2% and 109% | 105% (2×) and 118% | 93.9% and 92.3% and 76.3% | 65.6% and 63.6% and 58.4% | 34% and 34.8% and 33.6% | 24.1% and 21.5% and 21.2% | 1750 nM and 1690 nM and 1370 nM |  |  |  |  |  | 
COc1ccc([C@@H](O)c2cc(-c3ncnc4cc(N5CCOCC5)ccc34)c(F)cc2Cl)nn1 | 97.1% and 112% | 107% and 117% | 102% and 98.3% | 101% and 103% | 100% and 91% | 83% and 67.6% | > 10000 nM |  |  |  |  |  | 
COc1cccc2c1C(=O)c1c(O)c3c(c(O)c1C2=O)CC(O)(C(=O)CO)CC3OC1CC(N)C(O)C(C)O1 (stereo unspecified) | 93% and 102% and 100% | 89.2% and 78.7% and 73.9% | 33.4% and 33.9% and 34.3% | 19.4% and 18.2% and 21.9% | 1.94% and 2.47% and 2.18% | 0.14% and 0.19% and 0.1% | 231 nM and 221 nM and 215 nM |  |  |  |  |  | 
COc1ncnc(C2CC2)c1-c1ncc2cnn(Cc3ccc(-c4nc(C(F)(F)F)cn4C(C)C)cc3)c2n1 | 94% and 97.5% and 102% | 93.6% and 99.8% and 99.5% | 93.8% and 100% and 99.5% | 104% and 98.2% and 103% | 109% and 103% and 105% | 106% and 108% and 99.5% | > 10000 nM |  |  |  |  |  | 
Cc1[nH]c2ccc(F)cc2c1-c1nc2c3cccnc3c3ncccc3c2[nH]1 | 99.2% [middle of 12 runs] | 99.6% [middle of 12 runs] | 103% [middle of 12 runs] | 102% [middle of 12 runs] |  | 100% [middle of 12 runs] |  | > 10000 nM | > 10000 |  |  |  | 
Cc1[nH]c2ccccc2c1CCNCc1ccc(/C=C/C(=O)NO)cc1 | 114% (2×) and 115% |  | 7.14% and 9% and 10.9% |  |  |  | 99.1 nM and 120 nM and 186 nM |  |  | 103% and 99.2% and 97.9% | 98.1% and 105% and 101% | 110% and 118% and 113% | 49.5% and 57.8% and 96%
Cc1cccc(N(C)C(=O)C2C(O)CCN2c2nc(C)cc(C(F)(F)F)c2C#N)c1 (stereo unspecified) | 110% and 103% and 101% | 94.9% and 106% and 101% | 97.7% and 98.8% and 106% | 97.1% and 104% and 90.2% | 96.7% and 109% and 108% | 97.8% and 103% and 95% | > 10000 nM |  |  |  |  |  | 
Cc1cnc(CNC(=O)c2c(=O)c3ccc(N4CCCN(C)CC4)nc3n3c2sc2ccccc23)cn1 | 101% [middle of 11 runs] | 82.4% [middle of 11 runs] | 57.1% [middle of 11 runs] | 42.3% [middle of 11 runs] | 37.6% [middle of 11 runs] | 31.1% [middle of 11 runs] |  | 582 nM [middle of 11 runs] |  |  |  |  | 
Cn1ncnc1[C@H]1c2n[nH]c(=O)c3cc(F)cc(c23)N[C@@H]1c1ccc(F)cc1 | 108% and 106% and 99.2% |  | 94.1% and 91.5% and 92.8% |  |  |  | > 316 nM |  |  | 93.9% and 104% and 90.5% | 98% and 101% and 97% | 104% and 103% and 98.8% | 112% and 104% and 98.9%
Nc1ccn(C2OC(CO)C(O)C2(F)F)c(=O)n1 (stereo unspecified) | 17.8% and 12.3% and 18.4% | 9.82% and 7.07% and 9.32% | 9.4% and 5.69% and 8.76% | 10.4% and 6.8% and 10.7% | 11.5% and 7.2% and 10.4% | 9.06% and 6.96% and 7.8% | < 31.6 nM |  |  |  |  |  | 
O=C(NO)c1cnc(N2CCN(S(=O)(=O)c3ccc4ccccc4c3)CC2)nc1 | 107% and 124% and 114% | 109% and 110% and 112% | 5.8% and 7.04% and 12.4% | 0.3% and 0.23% | 0.3% and 0.39% and 0.16% | 0.32% and 0.35% and 0.19% | 192 nM and 195 nM and 205 nM |  |  |  |  |  | 
O=C(c1cc(Cc2n[nH]c(=O)c3ccccc23)ccc1F)N1CCN(C(=O)C2CC2)CC1 | 93.2% and 101% and 92.1% | 92% and 98.2% and 93.7% | 98.1% and 94.9% and 107% | 101% (2×) and 99.2% | 101% and 105% and 95.4% | 91% and 84.7% and 87.8% | > 10000 nM |  |  |  |  |  | 
O=c1[nH]cc(F)c(=O)[nH]1 | 97% and 94.6% and 100% | 103% and 94.6% and 105% | 106% and 95.4% and 101% | 96.8% and 100% and 101% | 106% and 94.5% and 104% | 104% and 106% and 103% | > 10000 nM |  |  |  |  |  | 
